Data reported in patent US4127665A, “Thienohydantoin derivatives” (Pfizer Inc., priority 1978, dated 1978).
Like-named read-outs stand apart in the source and are kept apart here.

Experiments:
[1] = target: T1, aldose reductase (Bos taurus, UniProt P16116); assay: Inhibition of aldose reductase enzyme activity (partially purified enzyme from calf lens); type: biochemical; conditions: for inhibition at 100 µM: 10^-4 M; for inhibition at 10 µM: 10^-5 M; for inhibition at 1 µM: 10^-6 M; for inhibition at 1 µM / inhibition at 0.1 µM: low negative values not significant; for inhibition at 0.1 µM: 10^-7 M
T1 construct: partially purified aldose reductase enzyme obtained from calf lens; from tissue; host or cells: calf lens
Experimental: The spiro-thienohydantoins of Examples 1 through 5 were tested for their ability to reduce or inhibit aldose reductase enzyme activity, following the procedure described in U.S. Pat. No. 3,821,383 and based on the procedure of Hayman et. al., Journal of Biological Chemistry, 240, 877 (1965). The substrate employed was partially purified aldose reductase enzyme obtained from calf lens. The results obtained with each compound at a concentration of 10^-4 M are expressed as percent inhibition of enzyme activity.
The test of Example 6 was repeated at different concentrations of the compound under test, namely 10^-4 M, 10^-5 M, 10^-6 M, and 10^-7 M.
In this test, values below 20 are not always experimentally and statistically significant.

[2] = tested on: sorbitol accumulation in the sciatic nerve of streptozotocinized (i.e., diabetic) rats; assay: Inhibition of sorbitol accumulation in the sciatic nerve of streptozotocinized (diabetic) rats; type: in vivo, rat; conditions: measured 27 hours after induction, vs untreated
Experimental: The compounds of Examples 4 and 5 were tested for their ability to reduce or inhibit sorbitol accumulation in the sciatic nerve of streptozotocinized (i.e., diabetic) rats by the procedure essentially described in U.S. Pat. No. 3,821,383. In the present study, the amount of sorbitol accumulation in the sciatic nerves was measured 27 hours after induction of diabetes. The compounds were administered orally at the dose levels indicated at 4, 8 and 24 hours following the administration of streptozotocin. The results obtained in this manner are presented below in terms of percent inhibition (%) afforded by the test compound as compared to the case where no compound was administered (i.e., the untreated animal where sorbitol levels normally rise from approximately 50-100 mM/g. tissue to as high as 400 mM/g. tissue in the 27-hour test period): […]

[3] = Example 6 test, calf lens enzyme, read-out: % Inhibition at 10^-4 M
[4] = Example 7 repeat test, values below 20 not always significant, read-out: % Inhibition
[5] = Example 7 repeat test, values below 20 not always significant

inhibition at 100 µM [1, 3] [%] | inhibition at 100 µM [1, 4] [%] | inhibition at 10 µM [1, 5] [%] | inhibition at 1 µM [1, 5] [%] | inhibition at 0.1 µM [1, 5] [%] | Structure (SMILES) | % Inhibition (sorbitol accumulation in sciatic nerve) ([2]; 2.5 mg/kg orally at 4, 8 and 24 hours after streptozotocin) [%] | % Inhibition (sorbitol accumulation in sciatic nerve) ([2]; 25 mg/kg orally at 4, 8 and 24 hours after streptozotocin) [%]
83 | 88 | 67 | 12 | -7 | O=C1NC(=O)C2(CCc3c(Cl)sc(Cl)c32)N1 (stereo not shown) [Example 1] | – | –
95 | 35 | 67 | -12 | 21 | O=C1NC(=O)C2(CCc3c2csc3Cl)N1 (stereo not shown) [Example 2] | – | –
46 | – | – | – | – | O=C1NC(=O)C2(CCc3cscc32)N1 (stereo not shown) [Example 3] | – | –
80 | 75 | 55 | 18 | 15 | O=C1NC(=O)C2(CCc3sc(Cl)cc32)N1 (stereo not shown) [Example 4] | 20 | –
52 | – | – | – | – | O=C1NC(=O)C2(CCCc3sccc32)N1 (stereo not shown) [Example 5, 6,7-dihydro-spiro[benzo(b)thiophene-4(5H),4'-imidazolidine]-2',5'-dione] | – | 56
